Data taken from patent publication US9403835B2, “Tetraaza-cyclopenta[a]indenyl and their use as positive allosteric modulators” (Merck Patent GmbH, priority 2011, dated 2016).

biological target: T1, muscarinic M1 receptor (Homo sapiens, UniProt P11229); experiment: M1 PAM Assay (IP-One HTRF, IP1 in M1-CHO cells with EC20 of acetylcholine); assay type: cell-based; details: 1 hour at room temperature, IP1 readout
T1 construct: expressed in transfected cells; host or cells: CHO (M1-CHO cells)
T1 sequence (P11229 1-460): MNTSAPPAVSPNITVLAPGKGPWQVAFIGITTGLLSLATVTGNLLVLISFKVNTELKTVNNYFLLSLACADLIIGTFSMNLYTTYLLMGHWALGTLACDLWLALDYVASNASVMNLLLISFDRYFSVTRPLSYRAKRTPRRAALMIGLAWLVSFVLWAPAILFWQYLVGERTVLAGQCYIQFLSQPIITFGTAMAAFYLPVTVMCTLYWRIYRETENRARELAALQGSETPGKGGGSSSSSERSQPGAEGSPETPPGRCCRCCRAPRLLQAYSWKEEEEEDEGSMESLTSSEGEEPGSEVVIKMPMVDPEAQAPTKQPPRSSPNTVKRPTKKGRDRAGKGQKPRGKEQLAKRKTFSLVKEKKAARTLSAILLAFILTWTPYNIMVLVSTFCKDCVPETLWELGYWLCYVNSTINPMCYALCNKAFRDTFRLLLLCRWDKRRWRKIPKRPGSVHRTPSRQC
Protocol: M1-CHO cells are plated in culture medium (HAM's F12, P/S, 10% FCS) on the day before the experiment with 10 000 cells/well in a 384 well plate (3750 Corning White 384 w plate with lid). On the day of experiment, cells are washed with PBS and IPone buffer is added (glucose 5.5 mM, NaCl 146 mM, MgCl2 0.5 mM, HEPES 10 mM, LiCl 50 mM, CaCl2 1 mM, KCl 4.2 mM). Then diluted compounds (1% DMSO final concentration) are added together with EC20 of acetylcholine and incubated with the cells for 1 hour at room temperature. The intracellular concentration of IP1 is then measured using the IP-One HTRF assay from Cisbio.

Q: Which EC50 does the source give for `Cc1nc2c3c(nn2c(C)c1Cl)CN(C(=O)c1ccccc1OCCN(C)C)C3` [Example 8, (6-chloro-5,7-dimethyl-1H,3H-2,4,7a,8-tetraaza-cyclopenta[a]inden-2-yl)-[2-(2-dimethylamino-ethoxy)-phenyl]-methanone] here?
A: 200 to 1000 nM

Q: With `CCOc1ccccc1C(=O)N1Cc2nn3c(C)c(Cl)c(C)nc3c2C1` [Example 10] as the compound, how does the EC50 read?
A: 200 to 1000 nM

Q: For `CCCCOc1ccccc1C(=O)N1Cc2nn3c(C)c(Cl)c(C)nc3c2C1` [Example 11, (2-butoxy-phenyl)-(6-chloro-5,7-dimethyl-1H,3H-2,4,7a,8-tetraaza-cyclopenta[a]inden-2-yl)-methanone], which EC50 is on record?
A: 200 to 1000 nM

Q: For `Cc1nc2c3c(nn2c(C)c1Cl)CN(C(=O)c1ccccc1OC(F)(F)F)C3` [Example 14, (6-chloro-5,7-dimethyl-1H,3H-2,4,7a,8-tetraaza-cyclopenta[a]inden-2-yl)-(2-trifluoromethoxy-phenyl)-methanone], which EC50 is on record?
A: 200 to 1000 nM

Q: For `Cc1nc2c3c(nn2c(C)c1C)CN(C(=O)c1ccccc1N1CCN(C)CC1)C3` [Example 36, [2-(4-methyl-piperazin-1-yl)-phenyl]-(5,6,7-trimethyl-1H,3H-2,4,7a,8-tetraaza-cyclopenta[a]inden-2-yl)-methanone], which EC50 is on record?
A: 1000 to 2000 nM

Q: With `CCNc1ccccc1C(=O)N1Cc2nn3c(C)c(C)c(C)nc3c2C1` [Example 37, (2-ethylamino-phenyl)-(5,6,7-trimethyl-1H,3H-2,4,7a,8-tetraaza-cyclopenta[a]inden-2-yl)-methanone] as the compound, how does the EC50 read?
A: 1000 to 2000 nM

Q: With `Cc1cnc2c3c(nn2c1C)CN(C(=O)c1ccccc1OCCN(C)C)C3` [Example 38, [2-(2-dimethylamino-ethoxy)-phenyl]-(6,7-dimethyl-1H,3H-2,4,7a,8-tetraaza-cyclopenta[a]inden-2-yl)-methanone] as the compound, how does the EC50 read?
A: 1000 to 2000 nM

Q: Which EC50 does the source give for `Cc1nc2c3c(nn2c(C)c1C)CN(C(=O)c1ccccc1-n1cccn1)C3` [Example 39, (2-pyrazol-1-yl-phenyl)-(5,6,7-trimethyl-1H,3H-2,4,7a,8-tetraaza-cyclopenta[a]inden-2-yl)-methanone] here?
A: 1000 to 2000 nM

Q: Which EC50 does the source give for `Cc1nc2c3c(nn2c(C)c1C)CN(C(=O)c1ccccc1OCCC1CCCCC1)C3` [Example 40, [2-(2-cyclohexyl-ethoxy)-phenyl]-(5,6,7-trimethyl-1H,3H-2,4,7a,8-tetraaza-cyclopenta[a]inden-2-yl)-methanone] here?
A: 1000 to 2000 nM

Q: Which EC50 does the source give for `Cc1cnc2c3c(nn2c1C)CN(C(=O)c1ccccc1N1CCCN(C)CC1)C3` [Example 41, (6,7-dimethyl-1H,3H-2,4,7a,8-tetraaza-cyclopenta[a]inden-2-yl)-[2-(4-methyl-[1,4]diazepan-1-yl)-phenyl]-methanone] here?
A: 1000 to 2000 nM

Q: With `Cc1nc2c3c(nn2c(C)c1C)CN(C(=O)c1ccccc1C(F)(F)F)C3` [Example 43, (2-trifluoromethyl-phenyl)-(5,6,7-trimethyl-1H,3H-2,4,7a,8-tetraaza-cyclopenta[a]inden-2-yl)-methanone] as the compound, how does the EC50 read?
A: 1000 to 2000 nM

Q: For `COC(=O)c1ccccc1C(=O)N1Cc2nn3c(C)c(C)c(C)nc3c2C1` [Example 44, 2-(5,6,7-trimethyl-1H,3H-2,4,7a,8-tetraaza-cyclopenta[a]indene-2-carbonyl)-benzoic acid methyl ester], which EC50 is on record?
A: 1000 to 2000 nM

Q: Which EC50 does the source give for `CCOc1ccccc1C(=O)N1Cc2nn3cc(Cl)cnc3c2C1` [Example 46, (6-chloro-1H,3H-2,4,7a,8-tetraaza-cyclopenta[a]inden-2-yl)-(2-ethoxy-phenyl)-methanone] here?
A: 1000 to 2000 nM

Q: With `Cc1cnc2c3c(nn2c1)CN(C(=O)c1ccccc1OCCN(C)C)C3` [Example 47, [2-(2-dimethylamino-ethoxy)-phenyl]-(6-methyl-1H,3H-2,4,7a,8-tetraaza-cyclopenta[a]inden-2-yl)-methanone] as the compound, how does the EC50 read?
A: 1000 to 2000 nM

Q: With `CCOc1ccccc1C(=O)N1Cc2nn3cc(Br)cnc3c2C1` [Example 48, (6-bromo-1H,3H-2,4,7a,8-tetraaza-cyclopenta[a]inden-2-yl)-(2-ethoxy-phenyl)-methanone] as the compound, how does the EC50 read?
A: 1000 to 2000 nM

Q: Which EC50 does the source give for `Cc1nc2c3c(nn2c(C)c1C)CN(C(=O)c1ccccc1Br)C3` [Example 49, (2-bromo-phenyl)-(5,6,7-trimethyl-1H,3H-2,4,7a,8-tetraaza-cyclopenta[a]inden-2-yl)-methanone] here?
A: 1000 to 2000 nM

system: not given; experiment: not given; details: not given

Q: With `Cc1nc2c3c(nn2c(C)c1Cl)CN(C(=O)c1ccccc1OCCN(C)C)C3` [Example 8, (6-chloro-5,7-dimethyl-1H,3H-2,4,7a,8-tetraaza-cyclopenta[a]inden-2-yl)-[2-(2-dimethylamino-ethoxy)-phenyl]-methanone] as the compound, how does the melting point read?
A: 156 to 159 °C

Q: With `CCOc1ccccc1C(=O)N1Cc2nn3c(C)c(Cl)c(C)nc3c2C1` [Example 10] as the compound, how does the melting point read?
A: 164 to 167 °C

Q: For `CCCCOc1ccccc1C(=O)N1Cc2nn3c(C)c(Cl)c(C)nc3c2C1` [Example 11, (2-butoxy-phenyl)-(6-chloro-5,7-dimethyl-1H,3H-2,4,7a,8-tetraaza-cyclopenta[a]inden-2-yl)-methanone], which melting point is on record?
A: 167 to 169 °C

Q: With `Cc1nc2c3c(nn2c(C)c1Cl)CN(C(=O)c1ccccc1OC(F)(F)F)C3` [Example 14, (6-chloro-5,7-dimethyl-1H,3H-2,4,7a,8-tetraaza-cyclopenta[a]inden-2-yl)-(2-trifluoromethoxy-phenyl)-methanone] as the compound, how does the melting point read?
A: 179 to 181 °C

Q: With `Cc1nc2c3c(nn2c(C)c1Cl)CN(C(=O)c1ccccc1CN1CCC(O)C1)C3` (stereo not drawn) [Example 72, (6-chloro-5,7-dimethyl-1H,3H-2,4,7a,8-tetraaza-cyclopenta[a]inden-2-yl)-[2-(3-hydroxy-pyrrolidin-1-ylmethyl)-phenyl]-methanone] as the compound, how does the melting point read?
A: 210 to 217 °C

Q: Which melting point does the source give for `Cc1nc2c3c(nn2c(C)c1Cl)CN(C(=O)c1ccccc1CN1CCC(O)(C(F)(F)F)CC1)C3` [Example 90, (6-chloro-5,7-dimethyl-1H,3H-2,4,7a,8-tetraaza-cyclopenta[a]inden-2-yl)-[2-(4-hydroxy-4-trifluoromethyl-piperidin-1-ylmethyl)-phenyl]-methanone] here?
A: 223 to 227 °C

Q: Which melting point does the source give for `Cc1nc2c3c(nn2c(C)c1Cl)CN(C(=O)c1ccccc1CN1C[C@H]2CN(C)C[C@H]2C1)C3` [Example 94, (6-chloro-5,7-dimethyl-1H,3H-2,4,7a,8-tetraaza-cyclopenta[a]inden-2-yl)-[2-((3aR,6aS)-5-methyl-hexahydro-pyrrolo[3,4-c]pyrrol-2-ylmethyl)-phenyl]-methanone] here?
A: 174 to 177 °C

Q: For `Cc1nc2c3c(nn2c(C)c1Cl)CN(C(=O)c1ccccc1CN1CCCN(C)CC1)C3` [Example 95, (6-Chloro-5,7-dimethyl-1H,3H-2,4,7a,8-tetraaza-cyclopenta[a]inden-2-yl)-[2-(4-methyl-[1,4]diazepan-1-ylmethyl)-phenyl]-methanone], which melting point is on record?
A: 138 to 141 °C

Q: For `Cc1nc2c3c(nn2c(C)c1Cl)CN(C(=O)c1ccccc1CN1CCN2CCCC2C1)C3` (stereo not drawn) [Example 97, (6-chloro-5,7-dimethyl-1H,3H-2,4,7a,8-tetraaza-cyclopenta[a]inden-2-yl)-[2-(hexahydro-pyrrolo[1,2-a]pyrazin-2-ylmethyl)-phenyl]-methanone], which melting point is on record?
A: 180 to 182 °C

Q: With `O=C(c1ccccc1OC(F)(F)C(F)F)N1Cc2nn3cc(Cl)cnc3c2C1` [Example 106, (6-chloro-1H,3H-2,4,7a,8-tetraaza-cyclopenta[a]inden-2-yl)-[2-(1,1,2,2-tetrafluoro-ethoxy)-phenyl]-methanone] as the compound, how does the melting point read?
A: 194 to 196 °C

Q: With `Cc1nc2c3c(nn2c(C)c1Cl)CN(C(=O)c1ccccc1CN1CCNC(C)C1)C3` (stereo not drawn) [Example 116, (6-chloro-5,7-dimethyl-1H,3H-2,4,7a,8-tetraaza-cyclopenta[a]inden-2-yl)-[2-(3-methyl-piperazin-1-ylmethyl)-phenyl]-methanone] as the compound, how does the melting point read?
A: 195 to 200 °C

Q: For `Cc1nc2c3c(nn2c(C)c1Cl)CN(C(=O)c1ccccc1CN1CCNCC1=O)C3` [Example 117, 1-[2-(6-chloro-5,7-dimethyl-1H,3H-2,4,7a,8-tetraaza-cyclopenta[a]indene-2-carbonyl)-benzyl]-piperazin-2-one], which melting point is on record?
A: 176 to 183 °C

Q: For `Cc1nc2c3c(nn2c(C)c1Cl)CN(C(=O)c1ccccc1CN1CCCNCC1)C3` [Example 118, (6-chloro-5,7-dimethyl-1H,3H-2,4,7a,8-tetraaza-cyclopenta[a]inden-2-yl)-(2-[1,4]diazepan-1-ylmethyl-phenyl)-methanone], which melting point is on record?
A: 185 to 192 °C

Q: For `Cc1nc2c3c(nn2c(C)c1Cl)CN(C(=O)c1ccccc1CN1CCCC(N)C1)C3` (stereo not drawn) [Example 125, [2-(3-amino-piperidin-1-ylmethyl)-phenyl]-(6-chloro-5,7-dimethyl-1H,3H-2,4,7a,8-tetraaza-cyclopenta[a]inden-2-yl)-methanone], which melting point is on record?
A: 165 to 170 °C

Q: Which melting point does the source give for `Cc1nc2c3c(nn2c(C)c1Cl)CN(C(=O)c1ccccc1CN1CC(N(C)C)C1)C3` [Example 126, (6-chloro-5,7-dimethyl-1H,3H-2,4,7a,8-tetraaza-cyclopenta[a]inden-2-yl)-[2-(3-dimethylamino-azetidin-1-ylmethyl)-phenyl]-methanone] here?
A: 159 to 162 °C

Q: For `O=C(c1ccc(F)cc1OC(F)(F)C(F)F)N1Cc2nn3cc(Cl)cnc3c2C1` [Example 138, (6-chloro-1H,3H-2,4,7a,8-tetraaza-cyclopenta[a]inden-2-yl)-[4-fluoro-2-(1,1,2,2-tetrafluoro-ethoxy)-phenyl]-methanone], which melting point is on record?
A: 208 to 210 °C

Q: With `Cc1nc2c3c(nn2c(C)c1Cl)CN(C(=O)c1ccccc1CN(CCN(C)C)CC(F)(F)F)C3` [Example 154, (6-chloro-5,7-dimethyl-1H,3H-2,4,7a,8-tetraaza-cyclopenta[a]inden-2-yl)-(2-{[(2-dimethylamino-ethyl)-(2,2,2-trifluoro-ethyl)-amino]-methyl}-phenyl)-methanone] as the compound, how does the melting point read?
A: 168 to 174 °C
